According to patent US6268496A, “Certain imidazoquinoxalines: a new class of GABA brain receptor ligands” (Neurogen Corporation, priority 1999, dated 2001):

Legend:
[1] = test system: benzodiazepine binding site; conditions: cited from earlier work
[2] = molecular target: GABAa receptor; experiment: GABAa receptor activity: displacement of 3H-RO15-1788 (3H-Flumazenil) binding in rat cortical tissue homogenate; conditions: 0.5 nM 3H-RO15-1788 [3H-Flumazenil], 30 min at 4° C., pH 7.4
Procedure: Rat cortical tissue is dissected and homogenized in 25 volumes (w/v) of 0.05 M Tris HCl buffer (pH 7.4 at 4° C.). The tissue homogenate is centrifuged in the cold (4°) at 20,000×g for 20'. The supernatant is decanted and the pellet is rehomogenized in the same volume of buffer and again centrifuged at 20,000×g. The supernatant is decanted and the pellet is frozen at -20° C. overnight. The pellet is then thawed and rehomogenized in 25 volume (original wt/vol) of buffer and the procedure is carried out twice. The pellet is finally resuspended in 50 volumes (w/vol of 0.05 M Tris HCl buffer (pH 7.4 at […]).
Incubations are carried for 30 min at 4° C. then are rapidly filtered through GFB filters to separate free and bound ligand. Filters are washed twice with fresh 0.05 M Tris HCl buffer (pH 7.4 at 4° C.) and counted in a liquid scintillation counter. […] diazepam is added to some tubes to determine nonspecific binding. Data are collected in triplicate determinations, averaged and % inhibition of total specific binding is calculated. Total Specific Binding=Total-Nonspecific. In some cases, the amounts of unlabeled drugs is varied and total displacement curves of binding are carried out. Data are converted to a form for the calculation of IC50 and Hill Coefficient (nH).

Row | Structure (SMILES) | IC50 [2] [nM] | further results
1 | CN1CCc2cc3c(cc2[C@H]1[C@@H]1OC(=O)c2c1ccc1c2OCO1)OCO3 [(+) bicuculline] |  | block of the enhancement of benzodiazepine binding by GABA agonists [1]: blocked
2 | CN1CCc2cc3c(cc2[C@@H]1[C@H]1OC(=O)c2c1ccc1c2OCO1)OCO3 [(-) bicuculline] |  | block of the enhancement of benzodiazepine binding by GABA agonists [1]: much less active
3 | O=c1c2c[nH]c3ccccc3n-2c(=O)n1-c1ccccc1 [Compound 1, 2-Phenyl-imidazo[1,5-a]quinoxaline-1,3(2H,5H)-dione] | 9.5 | 
4 | CCOc1ccc(-n2c(=O)c3c[nH]c4ccccc4n-3c2=O)cc1 [Compound 3, 2-(4-ethoxyphenyl)-imidazo[1,5,a]quinoxaline-1,3(2H,5H)-dione] | 15 | 
5 | COc1ccc(-n2c(=O)c3c[nH]c4ccccc4n-3c2=O)cc1 [Compound 4, 2-(4-Methoxyphenyl)-imidazo[1,5,a]quinoxaline-1,3(2H,5H)-dione] | 9.5 | 
6 | Cc1ccc(-n2c(=O)c3c[nH]c4ccccc4n-3c2=O)cc1 [Compound 5, 2-(4-Methylphenyl)-imidazo[1,5,a]quinoxaline-1,3(2H,5H)-dione] | 16 | 
7 | COc1ccc(-n2c(=O)c3c[nH]c4ccc(Br)cc4n-3c2=O)cc1 [Compound 33, 8-Bromo-2-(4-methoxyphenyl)-imidazo[1,5,a]quinoxaline-1,3(2H,5H)-dione] | 2.4 | 
8 | NCCCC(=O)O [GABA, γ-Aminobutyric acid] |  | effect on binding of benzodiazepines ([1]; low affinity (1 mM) GABA binding site): enhance the binding of benzodiazepines
